This note sets out measurements from PubChem BioAssay (NCI).

What all share (assay): NCI tumour cell line growth inhibition, 48 h
The test system of test [1] is DU-145 prostate.
Test [2] relates to HCC-2998 colon.
Test [3] concerns MDA-N.
Test [4] concerns NCI-H23 lung.
In test [5] the test system is OVCAR-8 ovarian.
For test [6], the system named is SN12C renal.
Test [7] deals with UACC-62 melanoma.
Test [8] concerns MALME-3M melanoma.
Test [9] concerns OVCAR-5 ovarian.
For test [10], the system named is CCRF-CEM leukemia.

Molecules are shown by their SMILES. “And” between values parts separate entries of the source, which are not always exact repeats. Equal entries are not always repeated.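 Growth conditions: 96-well plates. Treatment: test compound, 48 hours, 5 concentrations. Analysis: linear interpolation between bracketing concentrations; unreached endpoints set to highest concentration. The concentration for 50% growth inhibition is given as GI50. TGI: total growth inhibition.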

As for `N#Cc1c(N)n(-c2cccc(C(=O)O)c2)c(=O)c2cc([N+](=O)[O-])ccc12`, the TGI in test [1], in test [2], in test [3], in test [4], in test [5] and in [6] was over 100 µM each time. Moreover, the TGI in [7] was over 100 µM.

Take `COc1ccc(C(OCC2OC(n3cc(C)c(=O)[nH]c3=O)CC2n2cc(Cn3cc(Cl)c(=O)[nH]c3=O)nn2)(c2ccccc2)c2ccccc2)cc1` (configuration not stated): the TGI in test [1], in test [2], in [8], in [3], in [4] and in test [9] was over 100 µM in each case. The TGI in [5], in [6] and in [7] was over 100 µM each time.

In the case of `CCCCCCOC(=O)/C=C/[C@]1(CO)C/C(=C/CC(C(C)C)C(C)C)C(=O)O1`, the TGI was determined as 37 µM in [1]; 6.18 µM in test [2]; 25.7 µM in [8]; 5.35 µM in [3]; 25 µM in [4]; 25.6 µM in test [9]. In addition, the TGI in test [5] was found to be 31.6 µM; in test [7], 27.3 µM.

Turning to `CC(OC(C)(C)C)[C@H](NC(=O)OCC(Cl)(Cl)Cl)C(=O)O` (some centres not stated), the TGI in test [10], in test [2], in test [8], in test [4], in [9] and in test [5] was over 100 µM in each case. The TGI in [6] and in test [7] was over 100 µM in each case.

Consider `C=C(C)[C@@H]1CC[C@]2(C(=O)NC3CCCCC3)CC[C@]3(C)[C@H](CC[C@@H]4[C@@]5(C)CCCNC(C)(C)[C@@H]5CC[C@]43C)[C@@H]12`, for which the GI50 in test [10] is 2300 nM; in test [1], 1.91 µM. The TGI stood at 6.68 µM in test [10] and 3.63 µM in [1].

As for `CN(C)CCC(=O)c1ccccc1`, the TGI in test [10] is 62.4 µM; in test [2] it was over 69.6 µM; in test [8] it was 24.1 µM; in test [4], over 74 µM; in [9], over 57.6 µM; in test [5], over 71.9 µM. Besides, the TGI in test [6] was over 70.1 µM; in test [7] it was over 68.1 µM.

Take `COC(=O)c1cc2ccc(N)nc2[nH]c1=O`: the TGI in test [2], in test [8], in [3], in test [4], in test [9] and in [5] was over 100 µM throughout. This compound showed a TGI in test [6] of over 100 µM.

Regarding `Cc1[nH]nc(C(F)(F)F)c1N=NN1CCOCC1`, the TGI was determined as 10.8 µM in test [10]; 13.4 µM in test [1]; 6.11 µM in [2]; 31.3 µM in test [8]; 15.5 µM in [4]; 41.7 µM in test [9]. Also, the results for the TGI in [5], in test [6] and in [7] were 13.7 µM, 30.8 µM and 23.5 µM, respectively.

Consider `CC1CCC(=O)C(C(=O)CC2CC(=O)N(C)C(=O)C2)C1` (configuration not stated), for which the TGI in test [10], in [1], in test [2], in [8], in test [4] and in [9] was over 100 µM in each case. The TGI in [5], in test [6] and in test [7] was over 100 µM in each case.

In the case of `O=C(Cn1c[n+](CC(=O)c2ccc(-c3ccccc3)cc2)c2ccccc21)Nc1cccc2cccnc12`, the GI50 was 2.22 µM in [1]; 1.4 µM in test [2]; 1520 nM in [4]; 1500 nM in test [9]; 1400 nM in test [7]. Besides, the TGI is 5.71 µM in test [1]; 2.74 µM in test [2]; 3.02 µM in test [4]; 2.84 µM in [9]; 2.84 µM in [7].

Take `CC#CCOC(=O)c1ccccc1OC(C)=O`: the TGI in test [10], in test [1], in test [2], in [3], in test [4] and in [9] was over 100 µM throughout. In addition, the TGI in test [5], in test [6] and in test [7] was over 100 µM each time.

For `CN1CCN(C(=S)N2CCN(C)CC2)CC1`, the TGI in [1], in [2], in [8], in test [3], in [4] and in [9] was over 100 µM throughout. Moreover, the TGI in test [5], in test [6] and in test [7] was over 100 µM throughout.

Consider `Nc1nc(N)c2c3c(cnc2n1)CC(c1ccccc1)CC3` (configuration not stated), for which the TGI is over 100 µM in [1]; over 100 µM in test [2]; over 100 µM in test [8]; over 100 µM in test [3]; over 100 µM in [9]; 26.6 µM in [5]. The TGI in test [6] is 53.3 µM; in [7], over 100 µM.

Turning to `CCC(/C=C/C1OC(=O)C=CC1C)=C\C(C)C/C=C/C(C)=C/C(C)C(=O)C(C)C(O)C(C)C/C(C)=C/C(=O)O` (configuration not stated), the GI50 in test [10] was under 0.001 nM; in [2], 2.44 µM; in test [8], 0.000217 µM; in [4], 0.00652 nM; in test [9] it was under 0.001 nM; in test [5], 0.00154 nM. Besides, the GI50 is 0.0696 nM in test [6] and 0.00223 nM in test [7]. Further, the TGI worked out at 6.29 µM in [8]; 0.000118 µM in [3]; 3.87 µM in test [4]; 15.5 µM in [9]; 9.77 µM in test [5]; 12 µM in test [6].

With `CC(C)C(=O)OCC1OC(n2c(Br)nc3c(=O)[nH]c(N)nc32)C(OC(=O)C(C)C)C1OC(=O)C(C)C` (configuration not stated), the TGI in [1], in test [8], in test [3], in test [9], in test [5] and in [6] was over 100 µM in each case. The same compound registered a TGI in test [7] of over 100 µM.

On to `O=c1cc(-c2cccc3ccccc23)[nH]c2ncccc12`, for which the GI50 in test [10] was 20.1 nM; in test [2], 0.0313 µM; in test [5] it was 33.8 nM; in test [6], 149 nM. Further, the TGI in test [10] is over 100 µM; in [1] it was over 100 µM; in test [2], 0.424 µM and 1.54 µM; in test [8] it was 0.0462 µM; in [4], over 100 µM; in test [9] it was over 100 µM. Also, the TGI in test [5] was 0.889 µM and 0.453 µM; in [6] it was over 100 µM; in test [7], over 100 µM.

With `COC(=O)/C=C(\C)CC(O)/C=C(\C)CCC=C(C)C` (configuration not stated), the TGI is 94.1 µM in [10]; over 100 µM in test [2]; over 100 µM in test [8]; over 100 µM in [3]; 74.9 µM in test [4]; over 100 µM in [9]. Besides, the TGI in test [5], in test [6] and in test [7] was over 100 µM each time.

Turning to `COc1cc2c(C)cc(O)cc2c2cc(O)c(C)cc12`, the TGI in test [10] is 18.2 µM; in [1] it was 20.9 µM; in [2], 24.4 µM; in test [3], 20 µM; in [4], 21.5 µM; in [9], 24.3 µM. In addition, the values for the TGI in test [5], in [6] and in test [7] were 40.2 µM, 19.8 µM and 22.3 µM, respectively.

In the case of `COC(=O)C1=C(O)C(C(=O)OC)[C@]2(O)[C@H](C(=O)OC)[C@H]1C[C@@H](c1ccc(C(F)(F)F)cc1)[C@H]2C(=O)OC` (some centres not stated), the TGI in test [1] came to 28.1 µM; in test [2] it was 14.7 µM; in test [8], 22.4 µM; in test [3] it was 17.2 µM; in test [4] it was 21.7 µM; in test [9], 15 µM. Besides, the TGI in test [5] is over 100 µM; in [6] it was 27.6 µM; in test [7], 29 µM.

With `Cn1ccc(C(=O)NCCN(CCNC(=O)c2ccn(C)c(=O)c2O)CCNC(=O)c2cccc(=O)n2O)c(O)c1=O`, the TGI in test [10], in [1], in [2], in test [8], in test [4] and in test [9] was over 100 µM in each case. Further, the TGI in [5], in test [6] and in test [7] was over 100 µM each time.

In the case of `COc1ccc(S(=O)(=O)c2nnc(S(=O)(=O)Cc3ccccc3)s2)cc1`, the TGI in [1] was 33 µM; in test [4], 62.3 µM; in [9], 54.5 µM; in test [5] it was 49.4 µM; in test [6], 52.9 µM.

In the case of `Cn1c(=O)n(C2(C)C[Se]C2)c2ccccc21`, the TGI in [10], in [2], in test [4], in test [9], in test [5] and in [6] was over 100 µM in each case. In test [7], this compound displayed a TGI of over 100 µM.

`CC1CCC(C(C)C)C(OC(=O)NCn2cc(-c3ccccc3)nn2)C1` (configuration not stated): the TGI in [10], in [1], in test [2], in test [8], in test [4] and in test [9] was over 100 µM throughout. For the same compound, the TGI in test [5] and in test [6] was over 100 µM in each case.

Take `CN1C2CCC1CC(=CCOC(c1ccc(F)cc1)c1ccc(F)cc1)C2`: the TGI was over 100 µM in test [10]; 30.5 µM in [1]; 13.3 µM in test [2]; 27.2 µM in test [8]; 32 µM in test [4]; 36 µM in test [9]. Besides, the TGI in test [5] came out at 32 µM; in [6], 33.5 µM; in test [7], 29.5 µM.

Take `O=C1/C(=C/c2ccccc2S)N=C(c2ccccc2)N1c1nc2c(Cl)cc(Cl)cc2s1`: the TGI in test [10] was 13.7 µM; in test [1], over 100 µM; in [2], 54.7 µM; in test [3] it was 36.9 µM; in [9], 54.8 µM; in test [5], 73.3 µM. The TGI in test [6] was 44.2 µM; in test [7], 57.5 µM.

Regarding `CCOC(=O)c1nnc2c(C(=O)OCC)c3ccccc3n2c1N`, the TGI in test [1] was over 100 µM; in [2], over 100 µM; in test [8] it was 7.57 µM; in test [3], over 100 µM; in [4] it was over 100 µM; in test [9] it was over 100 µM. Further, the TGI was over 100 µM in [5], 81.6 µM in test [6] and 9.25 µM in [7].

Take `CN(C)C1(N(C)C)Oc2c(c(=O)n(C)c(=O)n2C)C(c2ccccc2)C1(F)F` (configuration not stated): the TGI in test [10], in [1], in [2], in test [4], in test [9] and in test [7] was over 100 µM throughout.

Turning to `CCCCNC(=S)Nc1nc(C(=O)NNC(=S)Nc2ccccc2)cs1`, the TGI in [10], in test [1], in test [2], in [3], in [4] and in test [9] was over 100 µM throughout. Moreover, the TGI in test [5], in test [6] and in test [7] was over 100 µM throughout.

In the case of `COc1ccc(-[n+]2nc(S(=O)(=O)O)c(/C=C/c3ccc(N(C)C)cc3)cc2C#N)cc1`, the TGI in [10], in test [1], in test [2], in test [4], in test [9] and in [5] was over 100 µM in each case. The TGI in [6] and in test [7] was over 100 µM throughout.

As for `Nc1ncnc2c1ncn2[C@@H]1C[C@@H]1CO`, the TGI in [10], in test [2], in test [8], in test [3], in test [4] and in test [9] was over 100 µM each time. Further, the TGI in test [5] and in test [6] was over 100 µM in each case.
